Data on 18 molecules can be found in ChEMBL document CHEMBL5291721, “A preclinical secondary pharmacology resource illuminates target-adverse drug reaction associations of marketed drugs” (Nat Commun, 2023).

The AC50 is the concentration at which the activity in the assay is half-maximal. A high value points to activity only at high concentration.

For assay [1], the target named is T1, Glucocorticoid receptor (Homo sapiens, UniProt P04150).
T1 sequence (P04150 whole entry): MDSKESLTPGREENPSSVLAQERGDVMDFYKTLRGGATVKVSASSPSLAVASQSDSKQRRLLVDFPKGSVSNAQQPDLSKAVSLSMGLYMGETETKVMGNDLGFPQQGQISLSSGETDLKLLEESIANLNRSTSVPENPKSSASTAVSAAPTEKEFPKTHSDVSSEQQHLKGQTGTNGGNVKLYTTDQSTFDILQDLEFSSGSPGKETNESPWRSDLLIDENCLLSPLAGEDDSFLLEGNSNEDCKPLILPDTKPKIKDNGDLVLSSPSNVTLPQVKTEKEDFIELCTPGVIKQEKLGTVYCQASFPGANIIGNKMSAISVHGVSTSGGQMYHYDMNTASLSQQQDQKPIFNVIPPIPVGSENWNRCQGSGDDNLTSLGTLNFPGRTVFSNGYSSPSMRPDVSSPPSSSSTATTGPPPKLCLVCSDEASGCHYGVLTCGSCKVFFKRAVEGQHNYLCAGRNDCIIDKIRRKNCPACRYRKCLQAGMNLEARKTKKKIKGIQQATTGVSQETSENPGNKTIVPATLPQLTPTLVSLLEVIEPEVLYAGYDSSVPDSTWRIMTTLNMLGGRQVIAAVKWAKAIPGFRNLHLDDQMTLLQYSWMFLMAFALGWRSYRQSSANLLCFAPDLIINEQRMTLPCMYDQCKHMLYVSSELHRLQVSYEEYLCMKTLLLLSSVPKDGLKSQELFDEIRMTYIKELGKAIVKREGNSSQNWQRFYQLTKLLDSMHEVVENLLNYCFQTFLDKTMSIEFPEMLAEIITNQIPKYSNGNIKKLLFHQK

Assay [2] concerns the target T2, Muscarinic acetylcholine receptor M2 (Homo sapiens, UniProt P08172).
T2 sequence (P08172 whole entry): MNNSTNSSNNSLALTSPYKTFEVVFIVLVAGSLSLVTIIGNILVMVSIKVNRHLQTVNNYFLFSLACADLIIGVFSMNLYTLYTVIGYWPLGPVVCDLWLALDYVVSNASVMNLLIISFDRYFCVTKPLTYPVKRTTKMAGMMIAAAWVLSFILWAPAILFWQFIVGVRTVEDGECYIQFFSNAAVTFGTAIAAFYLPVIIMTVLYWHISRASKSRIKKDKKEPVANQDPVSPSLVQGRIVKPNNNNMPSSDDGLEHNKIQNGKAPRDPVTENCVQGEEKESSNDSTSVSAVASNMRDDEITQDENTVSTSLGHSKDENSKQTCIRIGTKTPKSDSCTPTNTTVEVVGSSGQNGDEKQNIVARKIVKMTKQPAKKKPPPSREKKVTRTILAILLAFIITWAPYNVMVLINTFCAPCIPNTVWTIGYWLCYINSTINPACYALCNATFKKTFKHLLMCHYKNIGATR
The assay is classed as functional, cell-based.

Assay [3] addresses 3',5'-cyclic-AMP phosphodiesterase 4D (Homo sapiens, UniProt Q08499). Format: functional.
The target of assay [4] is T3, Alpha-1A adrenergic receptor (Homo sapiens, UniProt P35348).
T3 sequence (P35348 whole entry): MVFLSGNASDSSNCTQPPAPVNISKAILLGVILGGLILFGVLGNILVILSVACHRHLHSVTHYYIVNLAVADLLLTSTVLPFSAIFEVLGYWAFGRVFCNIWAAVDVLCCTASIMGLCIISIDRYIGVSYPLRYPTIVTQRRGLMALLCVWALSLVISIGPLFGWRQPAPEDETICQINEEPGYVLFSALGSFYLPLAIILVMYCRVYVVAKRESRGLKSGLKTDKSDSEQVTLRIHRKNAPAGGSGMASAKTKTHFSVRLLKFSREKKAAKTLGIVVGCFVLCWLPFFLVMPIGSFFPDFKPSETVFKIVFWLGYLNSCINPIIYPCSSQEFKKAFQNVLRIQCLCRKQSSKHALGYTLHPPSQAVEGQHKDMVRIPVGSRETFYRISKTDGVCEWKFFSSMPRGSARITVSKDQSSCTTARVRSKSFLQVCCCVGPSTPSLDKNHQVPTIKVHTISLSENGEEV
Format: functional, cell-based.

The target in assay [5] is Mu-type opioid receptor (Homo sapiens, UniProt P35372). Nature of the assay: biochemical. Format: functional.
Sequence of Mu-type opioid receptor (P35372 whole entry): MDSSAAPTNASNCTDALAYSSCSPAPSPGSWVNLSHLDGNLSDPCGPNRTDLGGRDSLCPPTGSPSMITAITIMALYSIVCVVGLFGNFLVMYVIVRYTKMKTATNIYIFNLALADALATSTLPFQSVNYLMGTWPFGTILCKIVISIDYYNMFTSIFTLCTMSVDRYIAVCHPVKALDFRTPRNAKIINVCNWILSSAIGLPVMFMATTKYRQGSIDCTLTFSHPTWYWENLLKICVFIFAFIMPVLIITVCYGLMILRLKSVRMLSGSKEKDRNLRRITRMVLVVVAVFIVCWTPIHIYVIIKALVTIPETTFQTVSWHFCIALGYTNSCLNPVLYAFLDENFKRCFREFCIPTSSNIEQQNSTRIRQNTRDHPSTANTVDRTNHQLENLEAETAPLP
For assay [6], the target named is cGMP-inhibited 3',5'-cyclic phosphodiesterase 3A (Homo sapiens, UniProt Q14432). Format: functional.
Sequence of cGMP-inhibited 3',5'-cyclic phosphodiesterase 3A (Q14432 whole entry): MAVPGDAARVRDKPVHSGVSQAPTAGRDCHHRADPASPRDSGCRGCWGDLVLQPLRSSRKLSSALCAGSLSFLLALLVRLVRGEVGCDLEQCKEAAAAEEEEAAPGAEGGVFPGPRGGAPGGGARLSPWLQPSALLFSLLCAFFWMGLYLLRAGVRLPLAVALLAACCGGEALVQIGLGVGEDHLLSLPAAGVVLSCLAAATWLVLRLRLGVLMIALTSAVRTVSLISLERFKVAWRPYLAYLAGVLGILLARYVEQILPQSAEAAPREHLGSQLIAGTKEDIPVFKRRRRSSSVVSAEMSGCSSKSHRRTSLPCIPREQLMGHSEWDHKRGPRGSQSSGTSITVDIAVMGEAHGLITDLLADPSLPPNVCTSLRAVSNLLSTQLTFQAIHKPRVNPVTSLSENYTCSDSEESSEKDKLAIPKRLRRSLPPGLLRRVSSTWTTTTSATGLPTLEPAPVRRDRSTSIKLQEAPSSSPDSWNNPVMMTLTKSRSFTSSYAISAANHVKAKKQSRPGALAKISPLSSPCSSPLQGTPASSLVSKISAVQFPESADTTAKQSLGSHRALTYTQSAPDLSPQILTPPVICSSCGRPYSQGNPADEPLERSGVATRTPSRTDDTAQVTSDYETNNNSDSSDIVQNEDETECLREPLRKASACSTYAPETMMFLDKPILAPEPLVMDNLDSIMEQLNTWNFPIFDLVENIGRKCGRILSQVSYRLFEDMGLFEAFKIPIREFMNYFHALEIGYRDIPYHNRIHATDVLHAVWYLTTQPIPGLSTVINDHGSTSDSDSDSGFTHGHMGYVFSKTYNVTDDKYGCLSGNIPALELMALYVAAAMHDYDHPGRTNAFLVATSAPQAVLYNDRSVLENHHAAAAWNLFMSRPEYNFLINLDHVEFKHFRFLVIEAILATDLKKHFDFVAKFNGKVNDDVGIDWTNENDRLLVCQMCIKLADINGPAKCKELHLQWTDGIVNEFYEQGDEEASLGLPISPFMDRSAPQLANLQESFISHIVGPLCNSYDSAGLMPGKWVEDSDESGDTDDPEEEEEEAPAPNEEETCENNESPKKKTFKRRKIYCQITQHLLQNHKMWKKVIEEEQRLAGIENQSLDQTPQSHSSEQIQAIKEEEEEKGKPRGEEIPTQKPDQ
In assay [7] the target is Sodium-dependent serotonin transporter (Homo sapiens, UniProt P31645).
Sequence of Sodium-dependent serotonin transporter (P31645 whole entry): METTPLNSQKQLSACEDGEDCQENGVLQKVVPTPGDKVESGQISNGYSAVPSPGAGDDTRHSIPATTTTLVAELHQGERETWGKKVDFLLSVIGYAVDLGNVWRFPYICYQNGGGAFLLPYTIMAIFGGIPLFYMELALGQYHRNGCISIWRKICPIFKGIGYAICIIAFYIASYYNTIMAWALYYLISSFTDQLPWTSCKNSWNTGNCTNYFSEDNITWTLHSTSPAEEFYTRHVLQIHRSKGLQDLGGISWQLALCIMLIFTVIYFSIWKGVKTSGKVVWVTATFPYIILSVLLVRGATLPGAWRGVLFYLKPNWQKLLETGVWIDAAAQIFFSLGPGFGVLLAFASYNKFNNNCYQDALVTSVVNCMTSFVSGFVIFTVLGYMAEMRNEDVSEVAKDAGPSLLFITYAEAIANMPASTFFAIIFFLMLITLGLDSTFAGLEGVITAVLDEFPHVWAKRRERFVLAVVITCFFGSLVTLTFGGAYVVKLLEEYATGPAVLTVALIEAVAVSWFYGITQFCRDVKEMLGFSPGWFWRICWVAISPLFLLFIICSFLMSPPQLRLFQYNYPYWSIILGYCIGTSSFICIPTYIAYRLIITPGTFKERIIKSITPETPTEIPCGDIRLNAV
For assay [8], the target named is T4, Estrogen receptor (Homo sapiens, UniProt P03372).
T4 sequence (P03372 whole entry): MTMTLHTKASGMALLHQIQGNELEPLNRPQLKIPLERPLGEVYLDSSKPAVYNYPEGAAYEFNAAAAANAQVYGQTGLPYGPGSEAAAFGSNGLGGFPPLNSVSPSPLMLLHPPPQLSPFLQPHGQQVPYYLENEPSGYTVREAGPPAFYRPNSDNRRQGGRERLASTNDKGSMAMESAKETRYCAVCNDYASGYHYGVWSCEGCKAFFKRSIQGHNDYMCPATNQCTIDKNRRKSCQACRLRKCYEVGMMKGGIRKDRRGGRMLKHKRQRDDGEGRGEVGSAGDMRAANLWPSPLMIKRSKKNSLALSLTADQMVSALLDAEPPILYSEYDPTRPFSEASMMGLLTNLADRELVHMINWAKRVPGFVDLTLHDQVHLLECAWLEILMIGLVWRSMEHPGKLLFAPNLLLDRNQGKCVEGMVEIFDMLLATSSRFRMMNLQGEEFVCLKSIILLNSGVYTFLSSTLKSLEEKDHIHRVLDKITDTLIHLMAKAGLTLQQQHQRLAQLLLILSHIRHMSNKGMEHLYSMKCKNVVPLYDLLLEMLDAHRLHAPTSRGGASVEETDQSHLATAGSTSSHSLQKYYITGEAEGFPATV

Bounds are passed on as bounds.
Further: assay procedure not described here.

Sequence of 3',5'-cyclic-AMP phosphodiesterase 4D (Q08499 whole entry): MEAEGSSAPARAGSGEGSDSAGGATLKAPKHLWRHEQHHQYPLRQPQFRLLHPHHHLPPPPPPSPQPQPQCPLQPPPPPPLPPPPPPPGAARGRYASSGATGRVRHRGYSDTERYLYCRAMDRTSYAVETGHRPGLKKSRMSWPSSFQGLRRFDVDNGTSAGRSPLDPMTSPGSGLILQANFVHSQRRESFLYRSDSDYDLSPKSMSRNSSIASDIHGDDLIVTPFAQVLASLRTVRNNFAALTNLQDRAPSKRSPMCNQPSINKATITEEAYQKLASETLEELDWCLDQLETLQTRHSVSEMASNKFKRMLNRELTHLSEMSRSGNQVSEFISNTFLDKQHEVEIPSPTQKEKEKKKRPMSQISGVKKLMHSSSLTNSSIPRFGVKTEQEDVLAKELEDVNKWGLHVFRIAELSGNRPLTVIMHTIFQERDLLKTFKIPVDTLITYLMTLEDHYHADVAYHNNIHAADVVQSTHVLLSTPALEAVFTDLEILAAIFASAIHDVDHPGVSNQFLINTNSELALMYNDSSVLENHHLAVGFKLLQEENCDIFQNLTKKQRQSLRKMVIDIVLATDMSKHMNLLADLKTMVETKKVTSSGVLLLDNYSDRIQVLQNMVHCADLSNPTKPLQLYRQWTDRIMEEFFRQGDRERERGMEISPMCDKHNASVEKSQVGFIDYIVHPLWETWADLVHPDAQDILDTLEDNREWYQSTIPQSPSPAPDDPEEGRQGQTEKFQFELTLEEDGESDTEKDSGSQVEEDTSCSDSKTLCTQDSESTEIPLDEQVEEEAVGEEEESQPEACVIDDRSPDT

`O=C(O)CCCc1ccccc1` [PHENYLBUTANOIC ACID]: the AC50 in assay [1], in assay [2], in assay [3], in assay [4], in assay [5] and in assay [6] was > 30 µM each time. Moreover, the AC50 in assay [7] is > 10 µM.

With `Cc1nc2ccc(CN(C)c3ccc(C(=O)N[C@@H](CCC(=O)O)C(=O)O)s3)cc2c(=O)[nH]1` [RALTITREXED], the AC50 in assay [2], in assay [3], in assay [4], in assay [5], in assay [6] and in assay [7] was > 30 µM each time.

`O=C1NCCN1CCN1CCC(c2cn(-c3ccc(F)cc3)c3ccc(Cl)cc23)CC1` [SERTINDOLE]: the AC50 is > 10 µM in assay [2]; 20 µM in assay [3]; 0.64 µM in assay [4]; > 30 µM in assay [5]; > 30 µM in assay [6]; 3.4 µM in assay [7].

As for `CCCC(CCC)C(=O)O[C@H]1C[C@H]2CC[C@@H](C1)[N+]2(C)C` [ANISOTROPINE], the AC50 in assay [2] is 0.63 µM; in assay [3], > 30 µM; in assay [4], 19 µM; in assay [5] it was > 30 µM; in assay [6], > 30 µM; in assay [7], > 30 µM.

Take `CCCCCCCCCCCC[N+](C)(C)CCOc1ccccc1` [DOMIPHEN]: the AC50 in assay [8] is 5 µM; in assay [1] it was 18 µM; in assay [3], 12 µM; in assay [5], > 30 µM; in assay [6] it was > 30 µM; in assay [7], 1.7 µM.

Take `CCCCC(C)(O)C/C=C/[C@H]1[C@H](O)CC(=O)[C@@H]1CCCCCCC(=O)OC` (stereo partly specified) [MISOPROSTOL]: the AC50 in assay [1], in assay [2], in assay [3], in assay [5], in assay [6] and in assay [7] was > 30 µM in each case.

Turning to `CCCCCCCCOc1ccccc1C(=O)Nc1ccc(C(=O)OCC[N+](C)(CC)CC)cc1` [OTILONIUM BROMIDE], the concentration at half-maximal activity (AC50) in assay [8] is > 30 µM; in assay [1] it was 11 µM; in assay [3], 2.5 µM; in assay [5], > 30 µM; in assay [6], 20 µM; in assay [7], 0.91 µM.

As to `CCC1(C2=CCCCCC2)C(=O)NC(=O)NC1=O` [HEPTABARBITAL], the AC50 was > 10 µM in assay [8]; > 10 µM in assay [1]; > 10 µM in assay [2]; > 30 µM in assay [3]; > 30 µM in assay [4]; > 30 µM in assay [6]. Besides, the AC50 in assay [7] was > 10 µM.

Consider `COC(=O)C1=C(C)NC(C)=C(C(=O)OC(C)C)C1c1cccc2nonc12` (stereo unspecified) [ISRADIPINE], for which the half-maximal activity concentration (AC50) in assay [1] was 15.1 µM; in assay [2], > 10 µM; in assay [3], 9 µM; in assay [4], > 30 µM; in assay [5] it was > 30 µM; in assay [6], 23 µM. Also, in assay [7], the AC50 was > 30 µM.

For `Cc1c(Cl)cccc1Nc1ccccc1C(=O)O` [TOLFENAMIC ACID], the AC50 was > 30 µM in assay [1]; > 30 µM in assay [2]; > 30 µM in assay [3]; 9.5 µM in assay [4]; > 30 µM in assay [5]; > 30 µM in assay [6]. Moreover, the AC50 in assay [7] was > 30 µM.

Turning to `CCOC(=O)[C@H](CCc1ccccc1)N[C@H]1CCCN2CCC[C@@H](C(=O)O)N2C1=O` [CILAZAPRIL], the concentration at half-maximal activity (AC50) in assay [1], in assay [2], in assay [3], in assay [4], in assay [5] and in assay [6] was > 30 µM each time. The AC50 in assay [7] was > 30 µM.

`CN(C)C(=O)OC1N=C(c2ccccc2)c2cc(Cl)ccc2N(C)C1=O` (stereo unspecified) [CAMAZEPAM]: the AC50 was > 30 µM in assay [8]; > 30 µM in assay [1]; > 10 µM in assay [2]; 4.3 µM in assay [3]; > 30 µM in assay [4]; > 30 µM in assay [6]. Further, the AC50 in assay [7] was > 10 µM.

On to `Cc1cc(-c2ccccc2)nnc1NCCN1CCOCC1` [MINAPRINE], for which the AC50 in assay [8] is > 30 µM; in assay [2] it was > 10 µM; in assay [3], > 30 µM; in assay [4], > 30 µM; in assay [6] it was > 30 µM; in assay [7], > 10 µM.

On to `Nc1ncnc2c1ncn2[C@@H]1O[C@H](COP(=O)(O)O)[C@@H](O)[C@H]1O` [ADENOSINE PHOSPHATE], for which the AC50 was > 30 µM in assay [1]; > 30 µM in assay [2]; 14 µM in assay [3]; > 30 µM in assay [4]; > 30 µM in assay [5]; 16 µM in assay [6]. For the same molecule, in assay [7], the AC50 is > 30 µM.

As for `CC(C)C(=O)OCC(=O)[C@@]12O[C@H](C3CCCCC3)O[C@@H]1C[C@H]1[C@@H]3CCC4=CC(=O)C=C[C@]4(C)[C@H]3[C@@H](O)C[C@@]12C` [CICLESONIDE], the AC50 in assay [8] is > 30 µM; in assay [2], > 10 µM; in assay [3], > 30 µM; in assay [4] it was > 30 µM; in assay [6], > 30 µM; in assay [7], > 10 µM.

In the case of `CC(Cc1ccccc1)NCCC(c1ccccc1)c1ccccc1` (stereo unspecified) [PRENYLAMINE], the AC50 is > 30 µM in assay [8]; > 30 µM in assay [1]; > 10 µM in assay [2]; > 30 µM in assay [3]; > 30 µM in assay [4]; > 30 µM in assay [6]. In assay [7], this molecule returned an AC50 of 17.6 µM.

As for `C[C@H]1C[C@@H]2[C@H]([C@@H](O)C[C@@]3(C)[C@H]2CC[C@]3(O)C(=O)COC(=O)CCC(=O)O)[C@@]2(C)C=CC(=O)C=C12` [METHYLPREDNISOLONE HEMISUCCINATE], the AC50 was 0.67 µM in assay [1]; > 30 µM in assay [2]; > 30 µM in assay [3]; > 30 µM in assay [5]; > 30 µM in assay [6]; > 30 µM in assay [7].

With `NC(CO)C(=O)NNCc1ccc(O)c(O)c1O` (stereo unspecified) [BENSERAZIDE], the AC50 in assay [8] is 1.72 µM; in assay [2] it was > 10 µM; in assay [3], > 30 µM; in assay [4], > 30 µM; in assay [6], > 30 µM; in assay [7], > 30 µM.
